Assay results reported in US12655127B2, “Fused ring compound as Wee-1 inhibitor” (WIGEN BIOMEDICINE TECHNOLOGY (SHANGHAI) CO., LTD., priority 2021, dated 2026).

The compounds below were run against recombinant protein Wee-1 (Homo sapiens, UniProt P30291) (assay: Inhibition of enzymatic activity of recombinant protein Wee-1 (HTRF)).
recombinant protein Wee-1, sequence (P30291 whole entry): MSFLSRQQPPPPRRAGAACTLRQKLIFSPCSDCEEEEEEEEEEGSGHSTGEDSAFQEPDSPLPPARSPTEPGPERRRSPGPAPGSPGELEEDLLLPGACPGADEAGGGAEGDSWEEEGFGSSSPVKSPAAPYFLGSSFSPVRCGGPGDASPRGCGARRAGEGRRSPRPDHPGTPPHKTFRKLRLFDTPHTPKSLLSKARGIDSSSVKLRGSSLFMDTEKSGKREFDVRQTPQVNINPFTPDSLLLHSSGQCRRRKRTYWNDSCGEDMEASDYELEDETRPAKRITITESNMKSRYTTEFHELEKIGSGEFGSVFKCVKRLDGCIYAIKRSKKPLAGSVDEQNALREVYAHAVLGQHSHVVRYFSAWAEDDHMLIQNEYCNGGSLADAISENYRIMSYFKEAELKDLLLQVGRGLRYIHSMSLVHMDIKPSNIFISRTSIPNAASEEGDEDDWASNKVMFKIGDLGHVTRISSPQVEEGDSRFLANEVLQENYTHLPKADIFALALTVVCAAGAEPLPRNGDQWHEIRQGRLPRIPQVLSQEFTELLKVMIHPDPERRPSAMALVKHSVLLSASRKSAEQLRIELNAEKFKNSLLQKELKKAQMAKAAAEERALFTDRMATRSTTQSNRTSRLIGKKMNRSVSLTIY
Format: biochemical
Method: The inhibitory effect of the compounds on the enzyme activity of recombinant protein Wee-1 was determined by HTRF. The procedures are as follows:
After DMSO or serially diluted compounds (up to 200 nM, 1:5 serially diluted) and recombinant proteins were co-incubated in a kinase buffer at 37° C. for 30 min Fluorescein-PolyGAT and ATP were added, and then the reaction was started by the addition of a substrate. After incubation at room temperature for 90 min, an antibody and a detection solution were added, and after further incubation at room temperature for 60 min, fluorescence values were detected (excitation wavelength: 340 nm, emission wavelengths: 495 and 520 nm). The 520 nm/495 nm fluorescence intensity ratio value was calculated, and compared with that of the DMSO group, and then the inhibition percentages and IC50 values of the compounds were calculated.
An IC50 of no more than 10 nM was found for `CN1Cc2cc(Nc3ncc(C#N)c(Nc4cccc(N=S(C)(C)=O)n4)n3)cc3c2C1CCCC3` (stereo not drawn) [Compound 88] in this work.
An IC50 of 10 to 50 nM was found for `CN1Cc2cc(Nc3ncc(C#N)c(Nc4cccc(N=S(C)(C)=O)n4)n3)cc3c2C(CCCC3)C1` (stereo not drawn) [Compound 56] in this work.
An IC50 of no more than 10 nM was found for `[2H]C([2H])([2H])N1Cc2cc(Nc3ncc(C#N)c(Nc4cccc(N=S(C)(C)=O)n4)n3)cc3c2C(CCC3)C1` (stereo not drawn) [Compound 134] in this work.
An IC50 of no more than 10 nM was found for `CN1Cc2cc(Nc3ncc(C#N)c(Nc4cc(N=S(C)(C)=O)ccn4)n3)cc3c2C(CCC3)C1` (stereo not drawn) [Compound 104] in this work.
An IC50 of no more than 10 nM was found for `CN1Cc2cc(Nc3ncc(C#N)c(Nc4cccc(N=S(C)(C)=O)n4)n3)cc3c2C(COC3)C1` (stereo not drawn) [Compound 66] in this work.
An IC50 of no more than 10 nM was found for `CN1Cc2cc(Nc3ncc(C#N)c(Nc4cccc(N=S(C)(C)=O)n4)n3)cc3c2C(C=CCC3)C1` (stereo not drawn) [Compound 84] in this work.
An IC50 of no more than 10 nM was found for `Cc1c(Nc2ncc(C#N)c(Nc3cccc(N=S(C)(C)=O)n3)n2)cc2c3c1CN(C)CC3CCC2` (stereo not drawn) [Compound 41] in this work.
An IC50 of no more than 10 nM was found for `CS(C)(=O)=Nc1cccc(Nc2nc(Nc3cc4c5c(c3)CN(CC3CC3)CC5CCC4)ncc2C#N)n1` (stereo not drawn) [Compound 18] in this work.
An IC50 of no more than 10 nM was found for `CN1Cc2cc(Nc3ncc(C#N)c(Nc4cccc(N=S(C)(C)=O)n4)n3)nc3c2C(CCC3)C1` (stereo not drawn) [Compound 45] in this work.
An IC50 of no more than 10 nM was found for `CN1Cc2cc(Nc3ncc(C#N)c(Nc4cccc(N=S(C)(C)=O)n4)n3)cc3c2C(C1)C(O)CC3` (stereo not drawn) [Compound 293] in this work.
An IC50 of no more than 10 nM was found for `CN1Cc2cc(Nc3ncc(C#N)c(Nc4cccc(N=S(C)(C)=O)n4)n3)cc3c2C(CCSC3)C1` (stereo not drawn) [Compound 77] in this work.
An IC50 of no more than 10 nM was found for `CN1Cc2cc(Nc3ncc(C#N)c(Nc4cncc(N=S(C)(C)=O)c4)n3)cc3c2C(CCC3)C1` (stereo not drawn) [Compound 103] in this work.
An IC50 of 10 to 50 nM was found for `CN1Cc2cc(Nc3ncc(C#N)c(Nc4cccc(N=S(C)(C)=O)n4)n3)cc3c2[C@@](C)(CC3)C1` [Compound 55] in this work.
An IC50 of no more than 10 nM was found for `CN1Cc2cc(Nc3ncc(-c4ccoc4)c(Nc4cccc(N=S(C)(C)=O)n4)n3)cc3c2C(CCC3)C1` (stereo not drawn) [Compound 99] in this work.
An IC50 of no more than 10 nM was found for `CN(C)CCN1Cc2cc(Nc3ncc(C#N)c(Nc4cccc(N=S(C)(C)=O)n4)n3)cc3c2C(CCC3)C1` (stereo not drawn) [Compound 17] in this work.
An IC50 of no more than 10 nM was found for `CN1Cc2cc(Nc3ncc(C#N)c(Nc4cccc(N=S(C)(C)=O)n4)n3)cc3c2C(C1)C1CC1C3` (stereo not drawn) [Compound 38] in this work.
An IC50 of no more than 10 nM was found for `CN1Cc2cc(Nc3ncc(C#N)c(Nc4cccc(N=S(C)(C)=O)n4)n3)cc3c2C(C)(CCCC3)C1` (stereo not drawn) [Compound 59] in this work.
An IC50 of no more than 10 nM was found for `CN1Cc2cc(Nc3ncc(C#N)c(Nc4cccc(N=S(C)(C)=O)n4)n3)cc3c2C(CCCCC3)C1` (stereo not drawn) [Compound 62] in this work.
An IC50 of no more than 10 nM was found for `CCN1Cc2cc(Nc3ncc(C#N)c(Nc4cccc(N=S(C)(C)=O)n4)n3)cc3c2[C@H](CCC3)C1` [Compound 8] in this work.
An IC50 of 10 to 50 nM was found for `CN1Cc2cc(Nc3ncc(C#N)c(Nc4cccc(N=S(C)(C)=O)n4)n3)cc3c2[C@@H](CC3)C1` [Compound 52] in this work.
An IC50 of no more than 10 nM was found for `CCN1Cc2cc(Nc3ncc(C#N)c(Nc4cccc(N=S(C)(C)=O)n4)n3)cc3c2C(CCC3)C1` (stereo not drawn) [Compound 7] in this work.
An IC50 of no more than 10 nM was found for `CN1Cc2cc(Nc3ncc(C(N)=O)c(Nc4cccc(N=S(C)(C)=O)n4)n3)cc3c2C(CCC3)C1` (stereo not drawn) [Compound 98] in this work.
An IC50 of no more than 10 nM was found for `[2H]C([2H])([2H])S(=O)(=Nc1cccc(Nc2nc(Nc3cc4c5c(c3)CN(C)CC5CCC4)ncc2C#N)n1)C([2H])([2H])[2H]` (stereo not drawn) [Compound 136] in this work.
An IC50 of no more than 10 nM was found for `CN1Cc2cc(Nc3ncc(C#N)c(Nc4cccc(N=S(C)(C)=O)n4)n3)cc3c2C(C1)SCC3` (stereo not drawn) [Compound 69] in this work.
An IC50 of no more than 10 nM was found for `CN1Cc2cc(Nc3ncc(C#N)c(Nc4nc(N=S(C)(C)=O)cc5[nH]ccc45)n3)cc3c2C(CCC3)C1` (stereo not drawn) [Compound 118] in this work.
An IC50 of no more than 10 nM was found for `CN1Cc2cc(Nc3ncc(C#N)c(Nc4cccc(N=S(C)(C)=O)n4)n3)cc3c2C(CSCC3)C1` (stereo not drawn) [Compound 79] in this work.
An IC50 of no more than 10 nM was found for `CN1Cc2cc(Nc3ncc(C#N)c(Nc4cccc(N=S5(=O)CCC5)n4)n3)cc3c2C(CCC3)C1` (stereo not drawn) [Compound 92] in this work.
An IC50 of no more than 10 nM was found for `CN1Cc2cc(Nc3ncc(C#N)c(Nc4cccc(N=S(C)(C)=O)n4)n3)cc3c2C(C=CC3)C1` (stereo not drawn) [Compound 36] in this work.
An IC50 of no more than 10 nM was found for `CN1Cc2cc(Nc3ncc(C#N)c(Nc4cccc(N=S(C)(C)=O)n4)n3)cc3c2C(CNC3)C1` (stereo not drawn) [Compound 127] in this work.
An IC50 of no more than 10 nM was found for `CN1Cc2cc(Nc3ncc(C#N)c(Nc4cccc(N=S(C)(C)=O)n4)n3)cc3c2C(CCC3)C12CC2` (stereo not drawn) [Compound 23] in this work.
An IC50 of no more than 10 nM was found for `CN1Cc2cc(Nc3ncc(C4CC4)c(Nc4cccc(N=S(C)(C)=O)n4)n3)cc3c2C(CCC3)C1` (stereo not drawn) [Compound 95] in this work.
An IC50 of no more than 10 nM was found for `CN1Cc2cc(Nc3ncc(C#N)c(Nc4cccc(N=S(C)(C)=O)n4)n3)cc3c2C(C1)C(F)(F)CC3` (stereo not drawn) [Compound 31] in this work.
An IC50 of no more than 10 nM was found for `[2H]C1([2H])C2CCCc3cc(Nc4ncc(C#N)c(Nc5cccc(N=S(C)(C)=O)n5)n4)cc(c32)CN1C` (stereo not drawn) [Compound 279] in this work.
An IC50 of no more than 10 nM was found for `Cc1c(Nc2ncc(C#N)c(Nc3cccc(N=S(C)(C)=O)n3)n2)cc2c3c1CCCC3CN(C)C2` (stereo not drawn) [Compound 46] in this work.
An IC50 of no more than 10 nM was found for `CN1Cc2cc(Nc3ncc(P(C)(C)=O)c(Nc4cccc(N=S(C)(C)=O)n4)n3)cc3c2C(CCC3)C1` (stereo not drawn) [Compound 96] in this work.
An IC50 of no more than 10 nM was found for `CN(C)C1Cc2cc(Nc3ncc(C#N)c(Nc4cccc(N=S(C)(C)=O)n4)n3)cc3c2C(CCC3)C1` (stereo not drawn) [Compound 89] in this work.
An IC50 of no more than 10 nM was found for `CN1Cc2cc(Nc3ncc(C#N)c(Nc4cccc(N=S(C)(C)=O)n4)n3)cc3c2C(COCC3)C1` (stereo not drawn) [Compound 78] in this work.
An IC50 of no more than 10 nM was found for `CN1Cc2cc(Nc3ncc(S(C)(=O)=O)c(Nc4cccc(N=S(C)(C)=O)n4)n3)cc3c2C(CCC3)C1` (stereo not drawn) [Compound 97] in this work.
An IC50 of no more than 10 nM was found for `CN1Cc2cc(Nc3ncc(C#N)c(Nc4cccc(N=S(C)(C)=O)n4)n3)cc3c2C(CC=CC3)C1` (stereo not drawn) [Compound 85] in this work.
An IC50 of 10 to 50 nM was found for `CN1Cc2cc(Nc3ncc(C#N)c(Nc4cccc(N=S(C)(C)=O)n4)n3)cc3c2C(C)(CC3)C1` (stereo not drawn) [Compound 53] in this work.
An IC50 of no more than 10 nM was found for `CN1Cc2c(F)c(Nc3ncc(C#N)c(Nc4cccc(N=S(C)(C)=O)n4)n3)cc3c2C(CCC3)C1` (stereo not drawn) [Compound 43] in this work.
An IC50 of no more than 10 nM was found for `CN1Cc2cc(Nc3ncc(C#N)c(Nc4cccc(N=S(C)(C)=O)n4)n3)cc3c2C(C1)CC(F)(F)C3` (stereo not drawn) [Compound 28] in this work.
An IC50 of no more than 10 nM was found for `CN1Cc2cc(Nc3ncc(C#N)c(Nc4cccc(N=S(C)(C)=O)n4)n3)cc3c2C(CS3)C1` (stereo not drawn) [Compound 71] in this work.
An IC50 of 10 to 50 nM was found for `CN1Cc2cc(Nc3ncc(C#N)c(Nc4cccc(N=S(C)(C)=O)n4)n3)cc3c2[C@H](CC3)C1` [Compound 51] in this work.
An IC50 of no more than 10 nM was found for `CN1Cc2cc(Nc3ncc(C#N)c(Nc4cccc(N=S(C)(C)=O)n4)n3)cc3c2C(C)(CCCCC3)C1` (stereo not drawn) [Compound 63] in this work.
An IC50 of no more than 10 nM was found for `CN1Cc2cc(Nc3ncc(C#N)c(Nc4cccc(N=S(C)(C)=O)n4)n3)cc3c2C(CCCO3)C1` (stereo not drawn) [Compound 74] in this work.
An IC50 of no more than 10 nM was found for `CN1Cc2cc(Nc3ncc(C#N)c(Nc4cccc(N=S(C)(C)=O)n4)n3)cc3c2C(C1)SC3` (stereo not drawn) [Compound 73] in this work.
An IC50 of no more than 10 nM was found for `CN1Cc2cc(Nc3ncc(C#N)c(Nc4cccc(N=S(C)(C)=O)n4)n3)cc3c2[C@H](CCC3)C1(C)C` [Compound 24] in this work.
An IC50 of no more than 10 nM was found for `CN1Cc2cc(Nc3ncc(C#N)c(Nc4cccc(N=S(C)(C)=O)n4)n3)cc3c2C(C1)OCCC3` (stereo not drawn) [Compound 80] in this work.
An IC50 of no more than 10 nM was found for `C=Cc1cc(N=S(C)(C)=O)nc(Nc2nc(Nc3cc4c5c(c3)CN(C)CC5CCC4)ncc2C#N)c1` (stereo not drawn) [Compound 122] in this work.
An IC50 of no more than 10 nM was found for `CN1Cc2cc(Nc3ncc(C#N)c(Nc4cccc(N=S(C)(C)=O)n4)n3)cc3c2C(CCC=C3)C1` (stereo not drawn) [Compound 86] in this work.
